Reference: article PMC11172460 (International Journal of Molecular Sciences, 2024)

Assays:
[1] = Hydrolysis kinetics in rat brain homogenates; format: in vitro ADME; details: within 3 h, 37 °C, 30 µM
Procedure: Brains were obtained from male Wistar rats, which were sacrificed by decapitation after a slight isoflurane anesthesia. The brains were immediately separated and homogenized in 5 volumes (w/v) of Tris HCl (50 mM, pH 7.4, 4 °C) using an ultra-Turrax (IKA Werke GmbH & Co. KG, Staufen, Germany) with 3 × 15 s bursts. After centrifugation of the homogenate (3000× g for 15 min at 4 °C), the supernatant was isolated and stored at −80 °C until its use for in vitro kinetic studies. The Lowry procedure was adopted to quantify the total protein concentration in the brain homogenate, resulting in 7.4 ± 0.4 μg protein/μL.
(§1) Kinetic analysis of Fer-Ger was performed by its incubation at 37 °C in 3 mL of rat liver or brain homogenates at 30 µM (9.92 µg/mL) final concentration. At defined time intervals, 100 μL of homogenates were withdrawn and immediately treated by quenching them in EtOH (250 µL), then an internal standard (100 μM carbazole dissolved in EtOH, 50 µL) was added. […]
(§2) The Fer-Ger degradation in whole blood or homogenates was analyzed as exponential decay plots of its concentrations versus incubation time, and the related half-life values were obtained from the linear regression of the corresponding semi-logarithmic plots. The quality of the fits was evaluated by considering the correlation coefficients (r) and p values. […]
(§3) Fer-Ger and its hydrolysis product, Ger, were quantified by HPLC. […]

[2] = Hydrolysis kinetics in rat liver homogenates; format: in vitro ADME
Procedure: Livers were obtained from male Wistar rats, which were sacrificed by decapitation, after a slight isoflurane anesthesia. The livers were immediately isolated, and, after washing with ice-cold saline solution, they were homogenized in 4 volumes (w/v) of Tris HCl (50 mM, pH 7.4, 4 °C) by using a Potter–Elvehjem apparatus. The supernatant obtained after centrifugation (2000× g for 10 min at 4 °C) was decanted off and stored at −80 °C before its use for kinetic studies.
as §1, with “added. The samples were centrifuged (13,500× g for 10 min), and the 300 μL aliquots were reduced to dryness under a nitrogen stream.” for “added.”
as §2, §3

differentiated N2a cells = assay: DCFH-DA assay of intracellular ROS production; format: cell-based, mouse
Procedure: N2a cells were seeded on T75 flasks and grown in Dulbecco’s Modified Eagle Medium (DMEM) containing Glutamax, supplemented with 100 μg/mL streptomycin, 100 IU/mL penicillin, and 10% fetal bovine serum (FBS) in a humidified 5% CO2 atmosphere at 37 °C. After two passages by trypsinization, cells were seeded at a density of 5 × 10^3 cells/well in 12-well plates with 2 mL of DMEM or at a density of 5 × 10^2 cells/well in 96-well plates with 0.2 mL of DMEM, depending on the study (see below). For neural differentiation, N2a cells were allowed to adhere and proliferate in wells for 4 days; then, after washing once with serum-free DMEM, differentiating medium composed of DMEM containing 1% HS and 20 μM all-trans-retinoic acid (atRA) was added in both the seeding conditions, up to 6 days of differentiation, after which the cells were used for the experiments.
The potential antioxidant effect of Fer-Ger was evaluated according to the original method of Wang and Joseph. In this method, the nonpolar 2′,7′-dichlorofluorescin diacetate (DCFH-DA) enters the intact cells and is hydrolyzed by intracellular esterases to nonfluorescent DCFH carboxylate anion, which remains entrapped and becomes the high fluorescent dichlorofluorescin (DCF) after oxidation by free radicals generated by a stressor, such as H2O2. Therefore, H2O2-induced intracellular ROS production was measured in N2a cells by a florescence intensity assay following exposure to the oxidation-sensitive dye DCFH-DA. N2a cells were seeded at a density of 1 × 10^4 cells/well in a black-coated and clear bottom 96-well plate and neuron-differentiated as reported above. After 6 days, differentiating medium in N2a cells was replaced with pre-warmed phenol-red-free and serum-free DMEM containing 10 µM DCFH-DA and incubated for 30 min in the dark in a humidified 5% CO2 atmosphere at 37 °C. The 10 µM DCFH-DA loading solution was then removed, and the cells were washed twice with fresh phenol-red-free and serum-free DMEM to remove the redundant extracellular DCFH-DA probe. Subsequently, N2a cells were incubated with pre-warmed phenol-red free DMEM containing 1% FBS as an untreated control and with solutions dissolved in phenol-red free DMEM containing 1% FBS of Fer-Ger (1, 5, or 10 µM) or 100 µM ascorbic acid (AA, as an established antioxidant positive control) and incubated for 1 h in a humidified 5% CO2 atmosphere at 37 °C. After this time, 100 µM H2O2 was added in the absence or presence of 1, 5 or 10 µM Fer-Ger or 100 µM AA, and the fluorescence intensity was measured at an excitation wavelength of 485 nm and at an emission wavelength of 530 nm, monitoring the oxidation of DCFH to DCF by the intracellular ROS by running the kinetic over 75 min in a fluorescence microplate reader (VICTOR^3TM 1420 Multilabel counter, PerkinElmer, Milan, Italy). Results were represented as a percentage of intracellular ROS production (100% of control) resulting from the mean values ± SEM of sextuplicate wells over time.

[3] = In vitro dissolution and release from SLMs; format: physicochemical; details: within 6 h, DPBS/MeOH 70:30 v/v, 37 °C
Procedure: Fer-Ger dissolution and release from the SLMs were evaluated by adding raw Fer-Ger (about 0.1 mg) or SLMs, containing an equivalent amount of Fer-Ger, to 60 mL of a mixture of DPBS and methanol (70:30 v/v). The samples were kept under mechanical stirring at 50 rpm and 37 °C. At defined time intervals, 0.2 mL aliquots of the medium were withdrawn and replaced with an equal volume of fresh fluid. The aliquots were filtered (0.45 μm) and injected (10 μL) into the HPLC apparatus for Fer-Ger quantification. The dissolution or release (%) of Fer-Ger was calculated from its total amount incubated as a free compound or contained in the SLMs, respectively. The data were determined from the average of three independent experiments.

- hydrolysis / stability [1]: total absence of hydrolysis processes
- time to complete hydrolysis [2]: about 30 min
- half-life at 30 µM ([2]; male, Wistar, liver homogenate, pH 7.4, 37 °C, 30 µM, pseudo-first-order kinetic): 3.94 ± 0.33 min
- raw powder solubilized (dissolution) [3]: about 30%
Structure (SMILES): COc1cc(/C=C/C(=O)OC/C=C(\C)CCC=C(C)C)ccc1O [Fer-Ger, Geranyl ferulate]
- effect on basal ROS production (differentiated N2a cells; Fer-Ger 1, 5 and 10 µM alone, 75 min): did not affect the ROS production
- effect on H2O2-induced ROS production (differentiated N2a cells; Fer-Ger 1, 5 and 10 µM with 100 µM H2O2, all times tested, p < 0.05): increased the H2O2-induced ROS production
